Experimental findings from patent publication US20250313549A1, “HERBICIDAL DERIVATIVES” (SYNGENTA CROP PROTECTION AG, priority 2021, published 2025) are described below.

Holding throughout (assay type): in vivo
Test [1] relates to Zea mays (ZEAMX). Description: Post-emergence test, herbicidal damage. To be noted: sprayed after 8 days cultivation, 1000 g/ha, evaluated after 13 days. The procedure: (§1) Seeds of a variety of test species are sown in standard soil in pots (Amaranthus retoflexus (AMARE), Echinochloa crus-galli (ECHCG), Amaranthus palmeri (AMAPA), Setaria faberi (SETFA), Zea mays (ZEAMX), Ipomoea hederacea (IPOHE)). After 8 days cultivation under controlled conditions in a glasshouse (at 24° C./16° C., day/night; 14 hours light; 65% humidity), the plants are sprayed with an aqueous spray solution derived from the formulation of the technical active ingredient in acetone/water (50:50) solution containing 0.5% Tween 20 (polyoxyethylene sorbitan monolaurate, CAS RN 9005-64-5). Compounds are applied at 1000 g/ha unless otherwise stated. The test plants are then grown in a glasshouse under controlled conditions in a glasshouse (at 24° C./16° C., day/night; 14 hours light; 65% humidity) and watered twice daily. After 13 days the test is evaluated for the percentage damage caused to the plant. The biological activities are shown in the following table on a five-point scale (5=81-100%; 4=61-80%; 3=41-60%; 2=21-40%; 1=10-20%; 0=0%; -=not tested).

For test [2], the system named is Amaranthus palmeri (AMAPA). The test is described as follows: Post-emergence test, herbicidal damage. The following applies: sprayed after 8 days cultivation, 1000 g/ha, evaluated after 13 days. The procedure:
as §1

In test [3] the test system is Ipomoea hederacea (IPOHE). The test is described as follows: Post-emergence test, herbicidal damage. To be noted: sprayed after 8 days cultivation, 1000 g/ha, evaluated after 13 days. How it is done: as §1
In test [4] the test system is Echinochloa crus-galli (ECHCG). The test is described as follows: Post-emergence test, herbicidal damage. To be noted: sprayed after 8 days cultivation, 1000 g/ha, evaluated after 13 days. The procedure:
as §1

The subject of test [5] is Setaria faberi (SETFA). The test is described as follows: Post-emergence test, herbicidal damage. The following applies: sprayed after 8 days cultivation, 1000 g/ha, evaluated after 13 days. The procedure: as §1
In test [6] the test system is Amaranthus retoflexus (AMARE). Description: Post-emergence test, herbicidal damage. The following applies: sprayed after 8 days cultivation, 1000 g/ha, evaluated after 13 days. The procedure: as §1
Test [7] relates to Amaranthus palmeri (AMAPA). The test is described as follows: Pre-emergence test, herbicidal damage. To be noted: 1000 g/ha, evaluated after 13 days.
The subject of test [8] is Amaranthus retoflexus (AMARE). Description: Pre-emergence test, herbicidal damage. To be noted: 1000 g/ha, evaluated after 13 days.
Test [9] deals with Ipomoea hederacea (IPOHE). The test is described as follows: Pre-emergence test, herbicidal damage. The following applies: 1000 g/ha, evaluated after 13 days.
Test [10] concerns Setaria faberi (SETFA). Description: Pre-emergence test, herbicidal damage. The following applies: 1000 g/ha, evaluated after 13 days.
Test [11] deals with Zea mays (ZEAMX). Description: Pre-emergence test, herbicidal damage. To be noted: 1000 g/ha, evaluated after 13 days.
Test [12] has as its system Echinochloa crus-galli (ECHCG). Description: Pre-emergence test, herbicidal damage. The following applies: 1000 g/ha, evaluated after 13 days.

Take `CCOC(=O)c1nn(-c2ccnc(Br)c2)c2cccc(Br)c2c1=O` [Compound 10, ethyl 5-bromo-1-(2-bromo-4-pyridyl)-4-oxo-cinnoline-3-carboxylate]: the “percentage damage caused to the plant, ZEAMX” value in the test on Zea mays (ZEAMX) [1] and with Zea mays (ZEAMX) [11] was 0 (0=0%) each time. Moreover, the “percentage damage caused to the plant, AMAPA” value in test [2] was 3 (3=41-60%); in test [7], 0 (0=0%). Further, the “percentage damage caused to the plant, IPOHE” value in [3] and in test [9] was 0 (0=0%) in each case. Besides, the “percentage damage caused to the plant, ECHCG” value in [4] is reported as 1 (1=10-20%). Besides, the “percentage damage caused to the plant, SETFA” value in the test on Setaria faberi (SETFA) [5] and in the test with Setaria faberi (SETFA) [10] was 0 (0=0%) in each case. Also, the “percentage damage caused to the plant, AMARE” value is on record as 3 (3=41-60%) in [6] and 1 (1=10-20%) in test [8].

Turning to `CCOC(=O)c1nn(-c2ccnc(OC(F)F)c2)c2cccc(C(C)=O)c2c1=O` [Compound 40, ethyl 5-acetyl-1-[2-(difluoromethoxy)-4-pyridyl]-4-oxo-cinnoline-3-carboxylate], the “percentage damage caused to the plant, AMAPA” value in test [2] and in test [7] was 0 (0=0%) throughout. In addition, the “percentage damage caused to the plant, IPOHE” value in [3] was 1 (1=10-20%); in test [9] it was 0 (0=0%). Also, the “percentage damage caused to the plant, ECHCG” value in test [4] was 4 (4=61-80%); in test [12], 3 (3=41-60%). In addition, in the test on Setaria faberi (SETFA) [5], the “percentage damage caused to the plant, SETFA” value is reported as 1 (1=10-20%). In addition, the “percentage damage caused to the plant, AMARE” value was 1 (1=10-20%) in test [6] and 0 (0=0%) in test [8]. The “percentage damage caused to the plant, ZEAMX” value in the test on Zea mays (ZEAMX) [11] is 0 (0=0%).

`CCOC(=O)c1nn(-c2ccc(OC(F)F)nc2)c2cccc(C(C)=O)c2c1=O` [Compound 37, ethyl 5-acetyl-1-[6-(difluoromethoxy)-3-pyridyl]-4-oxo-cinnoline-3-carboxylate]: the “percentage damage caused to the plant, AMAPA” value in test [2] and in test [7] was 0 (0=0%) in each case. Also, the figures for the “percentage damage caused to the plant, IPOHE” value in test [3] and in [9] were 2 (2=21-40%) and 0 (0=0%), respectively. For the same compound, the “percentage damage caused to the plant, ECHCG” value in test [4] and in [12] was 4 (4=61-80%) throughout. In the test with Setaria faberi (SETFA) [5], the “percentage damage caused to the plant, SETFA” value is 1 (1=10-20%). The results for the “percentage damage caused to the plant, AMARE” value in [6] and in test [8] were 1 (1=10-20%) and 0 (0=0%), respectively. Moreover, in the test with Zea mays (ZEAMX) [11], the “percentage damage caused to the plant, ZEAMX” value is on record as 4 (4=61-80%).

On to `CCOC(=O)c1nn(-c2ccc(F)nc2)c2cccc(Br)c2c1=O` [Compound 23, ethyl 5-bromo-1-(6-fluoro-3-pyridyl)-4-oxo-cinnoline-3-carboxylate], for which the “percentage damage caused to the plant, ZEAMX” value in the test with Zea mays (ZEAMX) [1] is on record as 1 (1=10-20%); in the test on Zea mays (ZEAMX) [11] it was 0 (0=0%). The “percentage damage caused to the plant, AMAPA” value in [2] and in test [7] was 0 (0=0%) each time. The “percentage damage caused to the plant, IPOHE” value was 0 (0=0%) in test [3] and 1 (1=10-20%) in test [9]. The “percentage damage caused to the plant, ECHCG” value in [4] is 4 (4=61-80%); in test [12] it was 5 (5=81-100%). Also, the “percentage damage caused to the plant, SETFA” value in the test with Setaria faberi (SETFA) [5] and with Setaria faberi (SETFA) [10] was 4 (4=61-80%) in each case. For the same compound, the “percentage damage caused to the plant, AMARE” value in test [6] and in test [8] was 0 (0=0%) throughout.

As for `CCOC(=O)c1nn(-c2cc(OC)ncn2)c2cccc(Br)c2c1=O` [Compound 32, ethyl 5-bromo-1-(6-methoxypyrimidin-4-yl)-4-oxo-cinnoline-3-carboxylate], the “percentage damage caused to the plant, ZEAMX” value with Zea mays (ZEAMX) [1] and in the test with Zea mays (ZEAMX) [11] was 0 (0=0%) throughout. Besides, the “percentage damage caused to the plant, AMAPA” value in test [2] is 1 (1=10-20%); in test [7], 0 (0=0%). Besides, the “percentage damage caused to the plant, IPOHE” value is listed as 1 (1=10-20%) in [3] and 0 (0=0%) in test [9]. Further, the “percentage damage caused to the plant, ECHCG” value in test [4] is on record as 0 (0=0%); in test [12] it was 1 (1=10-20%). The “percentage damage caused to the plant, SETFA” value in the test with Setaria faberi (SETFA) [5] was 0 (0=0%); in the test on Setaria faberi (SETFA) [10], 1 (1=10-20%). For the same compound, the “percentage damage caused to the plant, AMARE” value in [6] is on record as 1 (1=10-20%); in test [8] it was 0 (0=0%).

For the compound `N#Cc1cccc2c1c(=O)c(C(=O)O)nn2-c1cncnc1` [Compound 1, 5-cyano-4-oxo-1-pyrimidin-5-yl-cinnoline-3-carboxylic acid], the “percentage damage caused to the plant, ZEAMX” value is recorded as 1 (1=10-20%) in the test with Zea mays (ZEAMX) [1] and 0 (0=0%) in the test with Zea mays (ZEAMX) [11]. Moreover, the results for the “percentage damage caused to the plant, AMAPA” value in test [2] and in test [7] were 1 (1=10-20%) and 0 (0=0%), respectively. Further, the results for the “percentage damage caused to the plant, IPOHE” value in test [3] and in [9] were 1 (1=10-20%) and 0 (0=0%), respectively. In addition, the “percentage damage caused to the plant, ECHCG” value in test [4] and in test [12] was 2 (2=21-40%) throughout. For the same compound, the entries for the “percentage damage caused to the plant, SETFA” value in the test on Setaria faberi (SETFA) [5] and in the test with Setaria faberi (SETFA) [10] were 1 (1=10-20%) and 0 (0=0%), respectively. Besides, the “percentage damage caused to the plant, AMARE” value in test [6] is listed as 2 (2=21-40%); in [8] it was 0 (0=0%).

With `CCOC(=O)c1nn(-c2cnc(Cl)c(C)c2)c2cccc(Br)c2c1=O` [Compound 26, ethyl 5-bromo-1-(6-chloro-5-methyl-3-pyridyl)-4-oxo-cinnoline-3-carboxylate], the “percentage damage caused to the plant, AMAPA” value in [2] and in [7] was 1 (1=10-20%) in each case. In addition, the “percentage damage caused to the plant, IPOHE” value in [3] is 2 (2=21-40%); in [9], 0 (0=0%). Also, the “percentage damage caused to the plant, ECHCG” value in test [4] and in test [12] was 0 (0=0%) in each case. In addition, the “percentage damage caused to the plant, SETFA” value in the test on Setaria faberi (SETFA) [5] is recorded as 1 (1=10-20%). The “percentage damage caused to the plant, AMARE” value is given as 2 (2=21-40%) in test [6] and 1 (1=10-20%) in [8]. Also, the “percentage damage caused to the plant, ZEAMX” value in the test with Zea mays (ZEAMX) [11] is 0 (0=0%).

`CCOC(=O)c1nn(-c2ccnc(OC(F)F)c2)c2cccc(/C(C)=N\OC)c2c1=O` [Compound 41, ethyl 1-[2-(difluoromethoxy)-4-pyridyl]-5-[(Z)—N-methoxy-C-methyl-carbonimidoyl]-4-oxo-cinnoline-3-carboxylate]: the results for the “percentage damage caused to the plant, AMAPA” value in test [2] and in [7] were 1 (1=10-20%) and 0 (0=0%), respectively. For the same compound, the “percentage damage caused to the plant, IPOHE” value was 1 (1=10-20%) in [3] and 0 (0=0%) in test [9]. Further, the figures for the “percentage damage caused to the plant, ECHCG” value in test [4] and in test [12] were 2 (2=21-40%) and 4 (4=61-80%), respectively. In addition, in the test on Setaria faberi (SETFA) [5], the “percentage damage caused to the plant, SETFA” value is given as 1 (1=10-20%). Also, the “percentage damage caused to the plant, AMARE” value is given as 1 (1=10-20%) in test [6] and 0 (0=0%) in test [8]. In addition, the “percentage damage caused to the plant, ZEAMX” value with Zea mays (ZEAMX) [11] is recorded as 1 (1=10-20%).

For `CCOC(=O)c1nn(-c2ccc(C(F)F)nc2)c2cccc(Br)c2c1=O` [Compound 30, ethyl 5-bromo-1-[6-(difluoromethyl)-3-pyridyl]-4-oxo-cinnoline-3-carboxylate], the “percentage damage caused to the plant, AMAPA” value in [2] was 1 (1=10-20%); in [7], 0 (0=0%). Also, the “percentage damage caused to the plant, IPOHE” value is 2 (2=21-40%) in test [3] and 0 (0=0%) in test [9]. Also, the “percentage damage caused to the plant, ECHCG” value in [4] was 4 (4=61-80%); in [12], 2 (2=21-40%). Moreover, the “percentage damage caused to the plant, SETFA” value in the test on Setaria faberi (SETFA) [5] was 0 (0=0%). The “percentage damage caused to the plant, AMARE” value was 1 (1=10-20%) in test [6] and 0 (0=0%) in test [8]. Also, in the test with Zea mays (ZEAMX) [11], the “percentage damage caused to the plant, ZEAMX” value is listed as 0 (0=0%).
